Literature values as cited in patent publication US6491617B1, “Medical devices that resist restenosis” (St. Jude Medical, Inc., priority 1999, dated 2002).

Conditions: nitric oxide-releasing agent, test system not stated

Compound | IC50 (read-out: IC-50 concentration, i.e., a concentration at 50 percent effectiveness) [nM] | effective concentration [nM]
NCCCNCCCCNCCCN [Spermine, H2N(CH2)3NH2^+(CH2)4N[NONO]^−(CH2)3NH2] | 19.7 | 
NaO[NONO]Na [nitro percide] |  | 25
